“And” between values parts separate entries of the source, which are not always exact repeats. Identical values can stand only once.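 Cultured in 96-well plates, cells were exposed to test compound for 48 hours across five concentrations. GI50: concentration for 50% inhibition of growth. TGI is the concentration that stops growth completely.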
How the values were obtained:
Assay in all cases: NCI-60 cell line screen, 48 h
[1] = system: SK-MEL-5 melanoma
[2] = system: RPMI-8226 leukemia
[3] = system: NCI/ADR-RES ovarian
[4] = system: OVCAR-5 ovarian
[5] = system: RXF 393 renal
[6] = system: SF-295 CNS
[7] = system: HCT-116 colon
[8] = system: CCRF-CEM leukemia
[9] = system: SK-OV-3 ovarian
[10] = system: TK-10 renal

SMILES | GI50 [1] | TGI [1] | GI50 [2] | TGI [2] | GI50 [3] | TGI [3] | GI50 [4] | TGI [4] | GI50 [5] | TGI [5] | GI50 [6] | TGI [6] | GI50 [7] | TGI [7] | GI50 [8] | TGI [8] | GI50 [9] | TGI [9] | GI50 [10] | TGI [10]
C/C(=C(/c1ccc(O)cc1)c1ccc(Cl)cc1)c1ccccc1 | 0.454 µM | 0.849 µM | 0.583 µM | 1.69 µM | 0.668 µM | 1.89 µM | 1.17 µM | 2.67 µM | 0.469 µM | 1.17 µM | 0.603 µM | 1.5 µM | 0.543 µM | 1.27 µM | 0.764 µM | 2.87 µM | 1.04 µM | 3.76 µM | 1.72 µM | 5 µM
Cc1cnc(Nc2ccc(OCCN3CCCC3)cc2)nc1Nc1cccc(S(=O)(=O)NC(C)(C)C)c1 | 1.73 µM and 2.1 µM | 5.38 µM and > 5.38 µM | 1.23 µM and 1.09 µM | 6.51 µM and > 6.61 µM | 7.01 µM and > 7.11 µM | 26.6 µM and > 10 µM | 0.151 µM and 0.928 µM | 4.51 µM and > 10 µM | 0.0955 µM and 0.518 µM | 0.385 µM and 1.78 µM | 0.304 µM and 2.57 µM | 12.4 µM and > 10 µM | 0.345 µM | 4.94 µM and > 6.43 µM | 0.398 µM and 1.3 µM | > 21.7 µM | 0.171 µM and 0.631 µM | 2.62 µM and 3.14 µM | 0.149 µM and 0.424 µM | 3.7 µM and 1.85 µM
C[C@]12CC[C@H]3[C@@H](CC[C@]4(O)C[C@@H](O)CC[C@]34CO)[C@@]1(O)CC[C@@H]2C1=CC(=O)OC1 | – | 5.08 µM | – | 6.83 µM | – | 3.8 µM | – | 10.5 µM | – | 1.58 µM | – | 5.27 µM | – | 4.31 µM | – | > 36.7 µM | – | 6.72 µM | – | 4.91 µM
COC(=O)c1cc(-c2ccc(OC)cc2)[nH]c1N/N=C/c1c(Cl)cccc1Cl | 0.198 µM | 3.5 µM | 0.187 µM | 0.575 µM | 0.16 µM | 5.11 µM | 1.49 µM | 8.37 µM | 0.142 µM | 0.332 µM | 0.124 µM | 1.49 µM | 0.354 µM | 2.14 µM | 0.312 µM | 3.39 µM | 0.188 µM | 2.19 µM | 0.568 µM | 13.8 µM
NNS(=O)(=O)c1cc(C(=O)O)cc(C(=O)O)c1 | – | > 100 µM | – | > 100 µM | – | > 100 µM | – | > 100 µM | – | > 100 µM | – | > 100 µM | – | > 100 µM | – | > 100 µM | – | > 100 µM | – | > 100 µM
CCCCN(CC)c1ncnc2ccc(Br)cc12 | 16.1 µM | 33.4 µM | 3.71 µM | 22.1 µM | 15.6 µM | 39.8 µM | 20.5 µM | 49.8 µM | 8.45 µM | 24.7 µM | 17.8 µM | 38.3 µM | 15.8 µM | 36.2 µM | 19 µM | 63.8 µM | 18.8 µM | 49.4 µM | 19.7 µM | 39.8 µM
Oc1c(Cl)cc(Cl)cc1Sc1cc(Cl)cc(Cl)c1O | 1.84 µM and 1.74 µM | 4.04 µM and 4.03 µM | 3.13 µM and 2.49 µM | 8.93 µM and 16.8 µM | 2.92 µM and 2.74 µM | 13.1 µM and 9.29 µM | 4.37 µM and 4.04 µM | 17.9 µM and 14.2 µM | 2.84 µM and 2.52 µM | 8.76 µM and 7.65 µM | 2.33 µM and 2.34 µM | 6.47 µM and 6.51 µM | 2.87 µM and 2.44 µM | 9 µM and 6.51 µM | 4.32 µM and 2.83 µM | 23.4 µM and 25 µM | 2.66 µM | 7.04 µM | 3.99 µM | 11.6 µM

From PubChem BioAssay (NCI)
